One block for each molecule: values may come before it. Activity calls are given as the source filed them.
How the values were obtained:
[1] = target: Protein kinase C theta type (Homo sapiens, UniProt Q04759); assay: Navigating the Kinome. Panel member name: PRKCQ; format: functional
[2] = target: Serine/threonine-protein kinase PLK3 (Homo sapiens, UniProt Q9H4B4); format: functional
[3] = target: ALK tyrosine kinase receptor (Homo sapiens, UniProt Q9UM73); format: functional;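 also: ALK tested as one member of a kinase panel screen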
[4] = target: Testis-specific serine/threonine-protein kinase 2 (Homo sapiens, UniProt Q96PF2); format: functional;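 also: part of the Navigating the Kinome panel, target entry STK22B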
[5] = target: Mitogen-activated protein kinase 8 (Homo sapiens, UniProt P45983); format: functional;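 also: value comes from one member of a kinome-wide kinase profiling panel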
Chain of Mitogen-activated protein kinase 8 (P45983 whole entry): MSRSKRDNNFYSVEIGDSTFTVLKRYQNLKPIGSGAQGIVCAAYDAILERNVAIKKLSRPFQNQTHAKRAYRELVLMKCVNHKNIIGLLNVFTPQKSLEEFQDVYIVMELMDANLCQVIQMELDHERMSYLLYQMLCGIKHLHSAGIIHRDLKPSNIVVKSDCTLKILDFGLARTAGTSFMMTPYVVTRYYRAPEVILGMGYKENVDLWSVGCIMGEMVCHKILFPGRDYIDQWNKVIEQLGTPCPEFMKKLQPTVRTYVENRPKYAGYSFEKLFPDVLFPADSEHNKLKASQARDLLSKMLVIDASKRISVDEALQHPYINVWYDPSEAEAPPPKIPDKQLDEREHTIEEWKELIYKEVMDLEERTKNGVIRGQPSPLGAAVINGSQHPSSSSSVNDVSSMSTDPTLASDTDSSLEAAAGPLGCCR

[6] = target: Tyrosine-protein kinase Lyn (Homo sapiens, UniProt P07948); format: functional;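 also: lyn as one member of a kinase panel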
Insulin receptor = Insulin receptor (Homo sapiens, UniProt P06213); format: functional;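 also: insulin receptor kinase tested as one member of a kinome-wide kinase panel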
Chain of Insulin receptor (P06213 28-758 limits assumed): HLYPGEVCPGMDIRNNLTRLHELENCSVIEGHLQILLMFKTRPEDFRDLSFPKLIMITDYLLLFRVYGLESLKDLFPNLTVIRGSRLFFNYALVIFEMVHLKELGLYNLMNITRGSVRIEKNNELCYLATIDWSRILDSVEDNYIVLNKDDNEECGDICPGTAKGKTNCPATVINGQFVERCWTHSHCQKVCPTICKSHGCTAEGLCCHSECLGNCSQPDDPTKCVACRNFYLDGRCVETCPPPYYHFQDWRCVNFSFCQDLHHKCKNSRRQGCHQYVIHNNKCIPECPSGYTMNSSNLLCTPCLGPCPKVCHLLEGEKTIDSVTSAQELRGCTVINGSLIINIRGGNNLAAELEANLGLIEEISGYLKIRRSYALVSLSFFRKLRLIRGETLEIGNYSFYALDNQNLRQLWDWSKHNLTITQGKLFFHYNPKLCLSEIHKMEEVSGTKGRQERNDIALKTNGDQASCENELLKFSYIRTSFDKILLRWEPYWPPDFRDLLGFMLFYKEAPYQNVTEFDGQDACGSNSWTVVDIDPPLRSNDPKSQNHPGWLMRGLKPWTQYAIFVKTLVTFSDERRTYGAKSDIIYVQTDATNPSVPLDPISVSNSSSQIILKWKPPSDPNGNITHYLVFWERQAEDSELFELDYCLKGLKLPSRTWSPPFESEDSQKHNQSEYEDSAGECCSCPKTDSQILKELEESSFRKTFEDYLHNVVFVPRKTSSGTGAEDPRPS
Chain of Insulin receptor (P06213 763-1382 limits assumed): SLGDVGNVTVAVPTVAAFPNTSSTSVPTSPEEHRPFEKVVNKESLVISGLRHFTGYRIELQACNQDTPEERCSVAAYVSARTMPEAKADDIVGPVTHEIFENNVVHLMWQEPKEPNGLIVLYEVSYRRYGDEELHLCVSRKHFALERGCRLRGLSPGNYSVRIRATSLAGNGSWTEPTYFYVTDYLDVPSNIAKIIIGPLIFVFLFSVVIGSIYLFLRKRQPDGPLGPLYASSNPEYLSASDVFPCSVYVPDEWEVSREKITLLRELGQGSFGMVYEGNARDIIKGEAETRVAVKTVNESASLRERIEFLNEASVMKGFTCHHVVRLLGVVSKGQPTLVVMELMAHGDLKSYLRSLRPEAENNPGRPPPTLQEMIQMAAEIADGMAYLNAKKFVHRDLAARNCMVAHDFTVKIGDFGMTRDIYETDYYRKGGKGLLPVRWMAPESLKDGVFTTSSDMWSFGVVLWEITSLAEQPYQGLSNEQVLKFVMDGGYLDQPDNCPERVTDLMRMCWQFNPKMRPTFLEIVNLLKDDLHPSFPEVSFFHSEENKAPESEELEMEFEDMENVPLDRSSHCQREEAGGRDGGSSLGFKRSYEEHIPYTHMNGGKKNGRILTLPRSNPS

[7] = target: Protein-tyrosine kinase 2-beta (Homo sapiens, UniProt Q14289); format: functional
[8] = target: Proto-oncogene tyrosine-protein kinase Src (Homo sapiens, UniProt P12931); format: functional;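 also: SRC entry within a kinome-wide kinase profiling panel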
[9] = target: Dual specificity tyrosine-phosphorylation-regulated kinase 3 (Homo sapiens, UniProt O43781); format: functional;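 also: measured as one member of a broad kinase panel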
[10] = target: Platelet-derived growth factor receptor beta (Homo sapiens, UniProt P09619); format: functional;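 also: value comes from a kinome panel, with PDGFRB tested as one panel member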
[11] = target: MAP kinase-activated protein kinase 3 (Homo sapiens, UniProt Q16644); format: functional;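 also: value comes from a kinome-wide profiling panel in which MAPKAPK3 is one of the panel members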
Chain of MAP kinase-activated protein kinase 3 (Q16644 whole entry): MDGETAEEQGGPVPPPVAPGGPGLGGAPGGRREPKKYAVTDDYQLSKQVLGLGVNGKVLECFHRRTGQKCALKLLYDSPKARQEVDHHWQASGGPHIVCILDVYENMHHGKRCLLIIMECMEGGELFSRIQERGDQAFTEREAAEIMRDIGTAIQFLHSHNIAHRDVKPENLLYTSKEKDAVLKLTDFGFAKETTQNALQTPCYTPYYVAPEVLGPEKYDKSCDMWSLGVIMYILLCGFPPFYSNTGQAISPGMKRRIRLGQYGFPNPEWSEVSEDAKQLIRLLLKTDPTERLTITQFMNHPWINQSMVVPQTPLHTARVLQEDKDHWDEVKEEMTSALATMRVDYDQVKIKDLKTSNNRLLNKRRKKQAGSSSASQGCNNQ

[12] = target: G protein-coupled receptor kinase 5 (Homo sapiens, UniProt P34947); assay: Navigating the Kinome. Panel member name: GPRK5; format: functional
[13] = target: Insulin-like growth factor 1 receptor (Homo sapiens, UniProt P08069); assay: Navigating the Kinome. Panel member name: IGF1R; format: functional
[14] = target: Mitogen-activated protein kinase 1 (Homo sapiens, UniProt P28482); format: functional
[15] = target: Dual specificity tyrosine-phosphorylation-regulated kinase 4 (Homo sapiens, UniProt Q9NR20); format: functional
[16] = target: Protein kinase C iota type (Homo sapiens, UniProt P41743); format: functional;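 also: measured within a kinome-wide kinase panel, PRKCI as panel member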
[17] = target: Dual specificity tyrosine-phosphorylation-regulated kinase 1B (Homo sapiens, UniProt Q9Y463); assay: Navigating the Kinome. Panel member name: DYRK1B; format: functional
[18] = target: Protein-tyrosine kinase 6 (Homo sapiens, UniProt Q13882); format: functional
Chain of Protein-tyrosine kinase 6 (Q13882 whole entry): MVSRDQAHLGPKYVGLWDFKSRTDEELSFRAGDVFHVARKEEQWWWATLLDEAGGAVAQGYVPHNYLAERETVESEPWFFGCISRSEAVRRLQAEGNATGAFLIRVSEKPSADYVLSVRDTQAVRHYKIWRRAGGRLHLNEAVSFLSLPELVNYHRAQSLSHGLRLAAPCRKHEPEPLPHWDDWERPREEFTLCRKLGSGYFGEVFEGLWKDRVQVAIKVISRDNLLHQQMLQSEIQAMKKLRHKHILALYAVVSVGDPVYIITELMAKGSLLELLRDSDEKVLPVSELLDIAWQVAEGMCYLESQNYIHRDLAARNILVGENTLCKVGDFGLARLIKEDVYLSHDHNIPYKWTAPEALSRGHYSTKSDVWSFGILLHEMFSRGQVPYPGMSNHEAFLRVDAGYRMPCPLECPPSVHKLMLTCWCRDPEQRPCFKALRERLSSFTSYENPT

Aurora kinase B = Aurora kinase B (Homo sapiens, UniProt Q96GD4); format: functional
Chain of Aurora kinase B (Q96GD4 whole entry): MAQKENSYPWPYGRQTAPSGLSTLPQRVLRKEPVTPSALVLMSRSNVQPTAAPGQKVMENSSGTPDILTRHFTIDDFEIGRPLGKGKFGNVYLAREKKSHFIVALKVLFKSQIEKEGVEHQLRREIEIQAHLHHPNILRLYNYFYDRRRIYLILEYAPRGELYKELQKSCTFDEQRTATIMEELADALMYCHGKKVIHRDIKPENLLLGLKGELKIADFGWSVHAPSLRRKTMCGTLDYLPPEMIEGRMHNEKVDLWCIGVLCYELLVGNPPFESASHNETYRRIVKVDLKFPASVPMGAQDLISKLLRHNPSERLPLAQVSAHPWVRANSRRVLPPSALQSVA

[19] = target: STE20-like serine/threonine-protein kinase (Homo sapiens, UniProt Q9H2G2); format: functional
Chain of STE20-like serine/threonine-protein kinase (Q9H2G2 whole entry): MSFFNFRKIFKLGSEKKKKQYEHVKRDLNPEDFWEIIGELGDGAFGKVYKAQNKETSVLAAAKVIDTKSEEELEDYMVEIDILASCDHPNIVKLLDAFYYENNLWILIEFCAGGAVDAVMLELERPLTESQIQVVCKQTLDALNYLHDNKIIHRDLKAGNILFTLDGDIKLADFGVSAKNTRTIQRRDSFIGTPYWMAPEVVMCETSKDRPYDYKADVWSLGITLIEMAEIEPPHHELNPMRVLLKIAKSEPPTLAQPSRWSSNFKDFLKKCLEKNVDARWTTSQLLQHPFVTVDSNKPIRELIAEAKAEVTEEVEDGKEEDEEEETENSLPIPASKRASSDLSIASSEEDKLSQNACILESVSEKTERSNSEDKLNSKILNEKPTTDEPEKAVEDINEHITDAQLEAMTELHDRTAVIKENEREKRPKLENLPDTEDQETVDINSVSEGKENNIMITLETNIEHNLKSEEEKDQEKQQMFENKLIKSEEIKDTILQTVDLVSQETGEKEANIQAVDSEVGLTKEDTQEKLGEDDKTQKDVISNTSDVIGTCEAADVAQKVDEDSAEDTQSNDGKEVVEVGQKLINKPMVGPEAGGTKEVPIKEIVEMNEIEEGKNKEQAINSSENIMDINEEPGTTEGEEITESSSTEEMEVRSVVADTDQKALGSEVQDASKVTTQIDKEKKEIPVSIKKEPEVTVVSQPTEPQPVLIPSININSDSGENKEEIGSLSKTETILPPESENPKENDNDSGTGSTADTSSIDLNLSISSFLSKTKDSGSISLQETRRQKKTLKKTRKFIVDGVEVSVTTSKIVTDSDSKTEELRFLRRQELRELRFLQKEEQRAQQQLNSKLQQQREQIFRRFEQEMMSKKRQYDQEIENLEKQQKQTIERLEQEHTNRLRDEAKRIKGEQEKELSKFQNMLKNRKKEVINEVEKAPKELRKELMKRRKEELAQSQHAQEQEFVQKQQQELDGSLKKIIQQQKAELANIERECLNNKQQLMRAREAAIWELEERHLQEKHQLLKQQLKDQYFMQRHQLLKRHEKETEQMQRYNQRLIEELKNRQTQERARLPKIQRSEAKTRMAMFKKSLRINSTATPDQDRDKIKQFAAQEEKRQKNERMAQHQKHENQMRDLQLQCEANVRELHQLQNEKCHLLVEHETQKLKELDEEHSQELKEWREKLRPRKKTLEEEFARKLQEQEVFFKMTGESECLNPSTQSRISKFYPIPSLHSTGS

[20] = target: Dual specificity protein kinase CLK4 (Homo sapiens, UniProt Q9HAZ1); format: functional
[21] = target: Lymphokine-activated killer T-cell-originated protein kinase (Homo sapiens, UniProt Q96KB5); format: functional;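 also: value comes from a kinase panel screen in which TOPK was one of the panel members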
[22] = target: Serine/threonine-protein kinase MRCK alpha (Homo sapiens, UniProt Q5VT25); format: functional
[23] = target: Dual specificity tyrosine-phosphorylation-regulated kinase 1A (Homo sapiens, UniProt Q13627); format: functional;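 also: measured against DYRK1A as one member of a broad kinome profiling panel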
[24] = target: Tyrosine-protein kinase receptor UFO (Homo sapiens, UniProt P30530); format: functional
[25] = NIH-3T3 fibroblast cytotoxicity, dose response, cytotoxicity control, cell-based, fluorescence, Alamar Blue, secondary assay (AID 2327); format: functional;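 also: NIH-3T3 mouse fibroblasts cultured with fluconazole at 8 µg/mL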
[26] = target: T1, Histone-lysine N-methyltransferase NSD2 (Homo sapiens, UniProt O96028); format: biochemical
T1 sequence (O96028 whole entry): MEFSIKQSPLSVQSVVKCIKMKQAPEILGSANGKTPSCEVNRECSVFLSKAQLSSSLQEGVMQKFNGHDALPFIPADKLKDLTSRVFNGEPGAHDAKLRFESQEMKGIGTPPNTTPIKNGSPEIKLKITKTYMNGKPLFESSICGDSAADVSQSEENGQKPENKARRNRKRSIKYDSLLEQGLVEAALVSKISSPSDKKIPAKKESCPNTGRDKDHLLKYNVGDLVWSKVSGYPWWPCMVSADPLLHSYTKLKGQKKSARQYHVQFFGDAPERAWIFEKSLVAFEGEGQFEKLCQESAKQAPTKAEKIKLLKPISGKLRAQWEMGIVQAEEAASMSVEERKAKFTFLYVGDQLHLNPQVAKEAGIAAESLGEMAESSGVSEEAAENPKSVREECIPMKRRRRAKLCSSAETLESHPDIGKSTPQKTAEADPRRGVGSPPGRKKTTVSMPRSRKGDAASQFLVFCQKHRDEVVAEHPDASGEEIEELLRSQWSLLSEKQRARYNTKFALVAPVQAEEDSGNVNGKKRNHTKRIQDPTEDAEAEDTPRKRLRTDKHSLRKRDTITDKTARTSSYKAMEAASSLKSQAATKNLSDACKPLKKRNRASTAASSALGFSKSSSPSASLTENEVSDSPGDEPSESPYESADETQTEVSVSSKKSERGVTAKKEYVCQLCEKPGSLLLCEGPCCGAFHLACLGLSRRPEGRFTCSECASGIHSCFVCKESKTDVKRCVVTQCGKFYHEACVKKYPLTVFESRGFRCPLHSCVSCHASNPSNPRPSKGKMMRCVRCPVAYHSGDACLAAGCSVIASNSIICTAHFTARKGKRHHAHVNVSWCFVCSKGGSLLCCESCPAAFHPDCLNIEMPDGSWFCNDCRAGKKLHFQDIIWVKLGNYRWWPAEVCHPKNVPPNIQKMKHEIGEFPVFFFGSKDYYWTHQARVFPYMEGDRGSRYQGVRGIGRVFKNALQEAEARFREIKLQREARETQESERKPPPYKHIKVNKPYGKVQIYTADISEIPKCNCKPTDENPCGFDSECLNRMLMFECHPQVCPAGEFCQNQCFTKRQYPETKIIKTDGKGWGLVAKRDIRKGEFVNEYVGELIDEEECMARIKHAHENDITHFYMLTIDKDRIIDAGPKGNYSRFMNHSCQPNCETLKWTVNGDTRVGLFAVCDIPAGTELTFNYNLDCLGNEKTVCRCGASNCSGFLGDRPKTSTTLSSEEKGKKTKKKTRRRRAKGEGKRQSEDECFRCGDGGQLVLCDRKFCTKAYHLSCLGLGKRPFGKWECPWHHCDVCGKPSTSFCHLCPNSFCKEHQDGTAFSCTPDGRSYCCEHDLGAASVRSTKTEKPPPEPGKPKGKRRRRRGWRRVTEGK

Chain of Protein kinase C theta type (Q04759 whole entry): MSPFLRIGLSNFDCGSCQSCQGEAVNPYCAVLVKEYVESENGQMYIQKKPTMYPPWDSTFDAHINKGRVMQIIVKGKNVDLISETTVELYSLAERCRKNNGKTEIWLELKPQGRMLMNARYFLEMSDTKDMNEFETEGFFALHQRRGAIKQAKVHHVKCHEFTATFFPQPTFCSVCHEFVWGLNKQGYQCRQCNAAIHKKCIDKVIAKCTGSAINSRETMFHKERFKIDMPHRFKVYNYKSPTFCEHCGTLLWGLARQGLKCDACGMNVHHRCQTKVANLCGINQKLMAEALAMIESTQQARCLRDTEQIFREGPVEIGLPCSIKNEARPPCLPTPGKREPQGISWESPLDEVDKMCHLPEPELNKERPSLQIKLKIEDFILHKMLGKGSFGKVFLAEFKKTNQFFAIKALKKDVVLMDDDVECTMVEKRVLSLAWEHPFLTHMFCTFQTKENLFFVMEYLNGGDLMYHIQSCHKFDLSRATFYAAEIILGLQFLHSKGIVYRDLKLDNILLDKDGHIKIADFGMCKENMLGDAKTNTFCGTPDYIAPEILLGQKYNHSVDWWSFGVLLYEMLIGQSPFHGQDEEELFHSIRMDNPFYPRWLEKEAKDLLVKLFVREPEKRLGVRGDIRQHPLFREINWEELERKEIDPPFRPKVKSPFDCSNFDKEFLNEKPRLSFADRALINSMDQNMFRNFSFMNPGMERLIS

- Ki [1]: > 2000 nM (inactive)
- Ki [2]: > 7940 nM (inactive)
- Ki [3]: > 3980 nM (inactive)
- Ki [4]: 1580 nM (active)
- Ki [5]: > 2510 nM (inactive)
- Ki [6]: > 1580 nM (inactive)
- Ki (Insulin receptor): > 5010 nM (inactive)
- Ki [7]: 251 nM (active)
- Ki [8]: > 2000 nM (inactive)
- Ki [9]: 100 nM (active)
- Ki [10]: > 2000 nM (inactive)
- Ki [11]: 1580 nM (active)
- Ki [12]: > 3980 nM (inactive)
- Ki [13]: > 2000 nM (inactive)
- Ki [14]: 5010 nM (active)
- Ki [15]: 794 nM (active)
- Ki [16]: 3.16 nM (active)
- Ki [17]: 631 nM (active)
- Ki [18]: > 2510 nM (inactive)
- Ki (Aurora kinase B): > 2000 nM (inactive)
- Ki [19]: 126 nM (active)
- Ki [20]: 31.6 nM (active)
- Ki [22]: 631 nM (active)
- Ki [23]: 1000 nM (active)
- Ki [24]: 501 nM (active)
Compound: NCCCn1cc(-c2cc(-c3cc4ccccc4s3)c3[nH]ncc3c2)c2nc(N)ncc21
- Ki [21]: 2510 nM (active)

Compound: CCCn1nc([N+](=O)[O-])c(C(C#N)c2nc3ccccc3s2)c(Cl)c1=O (stereo not drawn)
- EC50 [25]: > 160000 nM (inactive)
- AC50 [26]: > 20000 nM (inactive)

Source: ChEMBL document CHEMBL1201862, “PubChem BioAssay data set” (2004)
